Patent US8394971B2, “Indole derivatives as selective androgen receptor modulators (SARMS)” (Janssen Pharmaceutica N.V., priority 2004, dated 2013)
Values joined by “and” are separate entries in the source; they are usually repeats but may differ in a detail not shown here. Equal values may be shown once. Read-outs that look alike come from different tables or passages of the source. Values belong to the compound of their own block, whether it stands above or below them.

Key:
[1] = target: T1, androgen receptor (rat ventral prostate cytosol) (Rattus norvegicus, UniProt P15207); assay: Androgen Receptor Binding Using Rat Ventral Prostate Cytosol; conditions: for IC50: read-out: IC50
T1 construct: from tissue; host or cells: ventral prostate of castrated male Sprague Dawley or Wistar rats, cytosol
T1 sequence (P15207 1-902): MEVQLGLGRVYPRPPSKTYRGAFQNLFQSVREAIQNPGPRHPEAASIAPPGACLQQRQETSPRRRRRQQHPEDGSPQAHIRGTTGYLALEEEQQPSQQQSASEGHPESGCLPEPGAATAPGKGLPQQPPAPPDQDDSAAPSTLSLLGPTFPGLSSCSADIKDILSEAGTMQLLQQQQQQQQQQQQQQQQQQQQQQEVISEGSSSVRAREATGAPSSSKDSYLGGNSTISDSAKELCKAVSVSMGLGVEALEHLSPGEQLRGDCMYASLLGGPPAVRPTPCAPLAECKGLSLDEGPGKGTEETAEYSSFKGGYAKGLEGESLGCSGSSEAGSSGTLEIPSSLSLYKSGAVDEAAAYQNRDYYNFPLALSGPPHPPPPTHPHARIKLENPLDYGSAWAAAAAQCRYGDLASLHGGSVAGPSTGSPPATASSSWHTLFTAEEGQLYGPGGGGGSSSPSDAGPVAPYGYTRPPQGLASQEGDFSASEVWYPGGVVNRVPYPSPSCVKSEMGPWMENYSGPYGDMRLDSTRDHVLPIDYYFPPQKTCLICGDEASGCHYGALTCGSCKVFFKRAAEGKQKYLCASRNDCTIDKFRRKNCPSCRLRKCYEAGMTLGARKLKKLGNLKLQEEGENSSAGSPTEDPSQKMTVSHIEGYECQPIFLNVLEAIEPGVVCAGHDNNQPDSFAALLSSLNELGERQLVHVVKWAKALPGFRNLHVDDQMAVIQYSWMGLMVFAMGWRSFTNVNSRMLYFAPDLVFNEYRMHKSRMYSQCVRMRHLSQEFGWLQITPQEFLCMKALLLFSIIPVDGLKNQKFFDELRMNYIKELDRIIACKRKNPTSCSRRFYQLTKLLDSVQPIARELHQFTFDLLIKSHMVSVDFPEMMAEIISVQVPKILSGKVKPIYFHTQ
Procedure: (§1) The assay was run on a 96 well plate with each well filled with a total reaction volume 150 μL, of a solution containing 5 pmol androgen receptor LBD (Panvera) or 30 μL of freshly prepared rat cytosol, 0.5 nM [^3H] […] (TED buffer contains 10 mM Tris.HCl pH 7.4, 1 mM sodium molybdate, 1.5 mM EDTA, 1 mM DTT and 10% (v/v) glycerol.)
(§2) On day one, the solution containing receptor, tracer and TED buffer was distributed into a 96 well plate. Diluted test compound or control vehicle was then added to individual wells and the plate incubated at 4° C. overnight.
(§3) On day two, to each well was then added 20 μL human γ-globulin (ICN 823102), prepared at 25 mg/ml in TE pH 8.0, and 55 μL 40% polyethylene glycol 8000 (JT Baker U222-08), prepared in TE pH 8.0. The plate was incubated at 4° C. for 60 minutes. During incubation, the harvester was rinsed with 10% PEG 8000, prepared in TE pH 8.0, and a GF/C Unifilter-96 was pre-wet with 10% PEG. The binding reaction was filtered, the retentate was washed three times with 10% PEG and dried under vacuum for a couple of minutes, then dried at 50° C. for 5 min and the plate was bottom sealed. Next, 25 μL of Microscint-20 (Packard) was added to the filter wells and the plate was top sealed. The plate wells were then counted on a TopCount (Packard).
Rat Prostate Cytosol Preparation:
Male Sprague Dawley or Wistar rats (Charles River, 200-300 g) were used for each preparation. The day before preparing the cytosol, the rats were castrated using standard surgical procedures.
The rats were euthanized by carbon dioxide asphyxiation. The rat prostates were quickly removed and placed on ice in pre-chilled, pre-weighed 50 mL plastic tubes. No more than five prostates were placed into one tube. The tubes were then weighed and the prostate tissue wet weights calculated.
To the chilled prostate tissue was then added […] of chilled homogenization buffer. The homogenization buffer was freshly prepared by mixing 10 mM Tris.HCl, pH 7.4, 1 mM sodium molybdate, 1.5 mM EDTA, 1 mM dithiothreitol, 10% (v/v) glycerol and 1% protease inhibitor cocktail (Sigma P 8340).
The prostate tissue was homogenized in a cold room using a pre-chilled Polytron PT3000 homogenizer (Brinkmann). Homogenization was performed at a speed setting of 20, three times for 10 sec bursts. The tubes containing the prostate tissue was kept on ice while homogenizing. The homogenate was allowed to rest on ice for 20 sec between bursts.
The homogenate was then placed into pre-chilled 3 mL polycarbonate ultracentrifuge tubes and centrifuged in the TLA-100 rotor of a TL-100 ultracentrifuge for 12 min at 100,000 rpm at 4° C. The resulting supernatant was stored in 1 mL aliquots at −80° C. until needed.
Binding to the androgen receptor was determined according to the protocol described in Example 86 using the above prepared rat cytosol.
% Inhibition was determined by testing dilutions of the test compound (usually duplicates of 10 μM) in the binding assay. Counts per well were measured and percents of inhibition determined. […] Counts per well were measured and IC50s determined by linear regression.

[2] = target: T2, androgen receptor LBD (Panvera) (Rattus norvegicus, UniProt P15207); assay: Androgen Receptor Filtration Binding Assay (PANVERA)
T2 construct: 5 pmol androgen receptor LBD (Panvera); purchased Panvera
T2 sequence (P15207 651-882 limits assumed): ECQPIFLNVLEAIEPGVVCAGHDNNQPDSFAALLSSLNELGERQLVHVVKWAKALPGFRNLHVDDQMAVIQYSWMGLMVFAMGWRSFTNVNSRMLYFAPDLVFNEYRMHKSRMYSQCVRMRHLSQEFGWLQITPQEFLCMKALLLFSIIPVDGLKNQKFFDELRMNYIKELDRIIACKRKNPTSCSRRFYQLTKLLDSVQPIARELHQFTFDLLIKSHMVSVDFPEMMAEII
Procedure: as §1, §2, §3
Counts per well were measured and IC50s determined by linear regression.

[3] = test system: testosterone-enhanced ventral prostate and seminal vesicle weights in castrated male Sprague Dawley rats; assay: Ventral Prostate and Seminal Vesicle Weight In Vivo Assay; set-up: species or system rat; conditions: immature castrated rats; once daily for five days, usually orally at 40 mg/kg, with testosterone propionate 2 mg/kg s.c.
Summary of the method: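 Immature (~50 g) castrated Sprague Dawley rats dosed once daily for five days with compound (usually oral, 40 mg/kg, cyclodextrin or methylcellulose vehicle) plus testosterone propionate 2 mg/kg s.c. Wet ventral prostate and seminal vesicle weights taken on day six; activity judged by prostate weight or body-weight-adjusted % inhibition.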

[4] = target: T3, androgen receptor (adenovirus AdEasy+rAR in L929 cells) (Rattus norvegicus, UniProt P15207); assay: L929 Androgen Receptor Functional Assay, Adenovirus Transduction; type: cell-based; conditions: L929 agonist testing; 3000 nM
T3 construct: expressed in transfected cells
T3 sequence (P15207 1-902): T1 sequence (P15207 1-902)
Summary of the method: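 Luminescent reporter readout after 48 h at 37 °C: rat AR delivered by adenovirus (AdEasy+rAR, moi 1:500) into L929 cells grown without phenol red in charcoal-treated serum. Antagonist wells also received R1881 (2.5× dilution at 2.5 nM).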

[5] = rat cytosol, concentration 1000 nM
[6] = Androgen Receptor Binding (Panvera), 0.5 nM [3H] R1881 tracer

Structure (SMILES): CC(O)(Sc1ccc(Cl)cc1)c1cc2cc(C#N)c(C(F)(F)F)cc2[nH]1 (racemic) [compound 261]
% Inhibition [1, 5]: 14.05%
IC50 [2, 6]: 1460 nM

Structure (SMILES): CC(O)(c1cc2cc(C#N)c(C(F)(F)F)cc2[nH]1)S(=O)(=O)c1ccc(Cl)cc1 (racemic) [compound 262]
% Inhibition [1, 5]: −8.4%
IC50 [2, 6]: > 10000 nM

Structure (SMILES): CC(O)(SC1CCCCC1)c1cc2cc(C#N)c(C(F)(F)F)cc2[nH]1 (racemic) [compound 257]
IC50 [2, 6]: 5150 nM

Structure (SMILES): CC(O)(SC1CCCCC1)c1cc2cc([N+](=O)[O-])c(C(F)(F)F)cc2[nH]1 (racemic) [compound 256]
IC50 [2, 6]: 2650 nM

Structure (SMILES): CS(=O)(=O)n1c(C2(O)CCN(C(=O)OCc3ccccc3)CC2)cc2cc(Cl)c(C(F)(F)F)cc21 [compound 19]
inhibition at 1 µM [1, 5]: -55%
IC50 [2, 6]: > 100000 nM

Structure (SMILES): CC(O)(Sc1ccc(Cl)cc1)c1cc2cc([N+](=O)[O-])c(C(F)(F)F)cc2[nH]1 (racemic) [compound 259]
IC50 [2, 6]: 915 nM

Structure (SMILES): CC(O)(CSC1CCCCC1)c1cc2nc(C(F)(F)F)ccc2[nH]1 (racemic) [Compound #1]
% Inhibition ([1]; 1 µM): 22%
IC50 [2, 6]: 14000 nM

Structure (SMILES): CC(O)(Sc1ccc(Cl)c(Cl)c1)c1cc2cc([N+](=O)[O-])c(C(F)(F)F)cc2[nH]1 (racemic) [compound 254]
% Inhibition [1, 5]: 41%
IC50 ([1]; rat cytosol): 670 nM
IC50 [2, 6]: 1020 nM and 920 nM

inhibition at 1 µM [1, 5]: -1.5%
IC50 ([1]; rat cytosol): 6000 nM
IC50 [2, 6]: 54000 nM
Structure (SMILES): CS(=O)(=O)n1c(C2(O)CCNCC2)cc2cc(Cl)c(C(F)(F)F)cc21 [Compound #23]

Structure (SMILES): CC(O)(Sc1ccccc1)c1cc2cc([N+](=O)[O-])c(C(F)(F)F)cc2[nH]1 (racemic) [compound 258]
% Inhibition [1, 5]: 35.4%
IC50 [2, 6]: 2450 nM

inhibition at 1 µM [1, 5]: -83.5%
IC50 [2, 6]: 8800 nM
Structure (SMILES): O=C(c1ccc(Cl)cc1)N1CCC(O)(c2cc3cc(Cl)c(C(F)(F)F)cc3[nH]2)CC1 [Compound #25]

Structure (SMILES): CC(O)(CSc1ccc(Cl)cc1)c1cc2cc(C#N)c(C(F)(F)F)cc2[nH]1 (centres unmarked) [compound 96]
IC50 [2]: 1710 nM

Structure (SMILES): OC1(c2cc3cc(Cl)c(C(F)(F)F)cc3[nH]2)CCN(Cc2ccccc2)CC1 [Compound #22]
IC50 [2, 6]: > 9600 nM

Structure (SMILES): CC(O)(COC(=O)c1ccccc1Cl)c1cc2cc([N+](=O)[O-])c(C(F)(F)F)cc2[nH]1 (centres unmarked) [compound 54]
IC50 [2]: 465 nM

Structure (SMILES): CS(=O)(=O)n1c(C2(O)CCN(Cc3ccccc3)CC2)cc2cc(Cl)c(C(F)(F)F)cc21 [Compound #21]
inhibition at 1 µM [1, 5]: -41.5%
IC50 [2, 6]: > 10200 nM

Structure (SMILES): CC(O)(COC(=O)c1ccc(Cl)cc1)c1cc2cc(Cl)c(C(F)(F)F)cc2[nH]1 (centres unmarked) [compound 62]
inhibition at 1 µM [1, 5]: 69%
IC50 [2, 6]: 325 nM

Structure (SMILES): CC(O)(CSc1ccc(F)cc1)c1cc2cc(Cl)c(C(F)(F)F)cc2[nH]1 (centres unmarked) [compound 83]
IC50 [2, 6]: 160 nM

Structure (SMILES): CC(O)(Sc1ccc(N)cc1)c1cc2cc([N+](=O)[O-])c(C(F)(F)F)cc2[nH]1 (racemic) [compound 266]
% Inhibition ([1]; rat cytosol, concentration 3000 nM): 12.4%
active / inactive (inhibition of testosterone-enhanced prostate weight) [3]: inactive
% Activity [4]: −4%
